The source of these data is paper PMC6154339, “Synthesis, Characterization, Antimicrobial and Antiproliferative Activity Evaluation of Cu(II), Co(II), Zn(II), Ni(II) and Pt(II) Complexes with Isoniazid-Derived Compound” (Molecules : A Journal of Synthetic Chemistry and Natural …, 2017).

Read-outs that look alike come from different tables or passages of the source.

The subject of data set [1] is Escherichia coli, ATCC 25922. Nature of the data set: Antibacterial activity, serial dilutions in liquid broth (MIC/MBC). In kind it is cell-based. The settings on record: E. coli (G −). The text has this: (§1) All synthesized complexes and the ligand were screened for their in vitro antibacterial activity against Gram-positive bacteria (Staphylococcus aureus), Gram-negative bacteria (Escherichia coli, Klebsiella pneumoniae) and antifungal activity (Candida albicans) strains using the paper disc diffusion technique (for the qualitative determination) and the serial dilutions in liquid broth method (for determination of MIC). Furacillinum and nystatine were used as standard drugs.
(§2) The antibacterial activity of complexes and also of their prototype furacilin has been determined under liquid nutritive environment (2% of peptonate bullion (pH 7.0)) using the successive dilutions method. Escherichia coli, Klebsiella pneumoniae, and Staphylococcus aureus stems were used as reference culture for the in vitro experiment. The dissolution of studied substances in dimethylformamide, microorganism cultivation, suspension obtaining, determination of minimal inhibition concentration (MIC) and minimal bactericide concentration (MBC) have been carried out according to the method previously reported.

The test system of data set [2] is Staphylococcus aureus, ATCC 25923. The description is as above. The format is cell-based. The settings on record: S. aureus (G +).
From the text: as §1, §2

Data set [3] concerns Klebsiella pneumoniae, ATCC 31,488. Described as above. As to conditions: K. pneumoniae (G −). In kind it is cell-based.
From the text: as §1, §2

Data set [4] deals with NCI-H1573 lung adenocarcinoma cell line. In words: Alamar blue cell viability assay. In kind it is cell-based. As to conditions: 48 h treatment, 10 µM, relative to untreated control. The procedure: (§3) Compounds HL, 1, 5, 6 and 8 were dissolved in dimethyl sulfoxide (DMSO; Sigma-Aldrich, Ayrshire, UK) and stored at 2–8 °C. Compounds 2, 3, 4 and 7 were dissolved in pyridine (Fluka, Munich, Germany). A stock solution of 10 mM in the proper solvents was prepared; as for the final concentration (10 µM), successive dilution of the stock solution with culture medium was made.
(§4) The breast cancer cell lines were cultured as follow: MCF-7 human breast cancer cell line (ATCC, Rockville, MD, USA) was cultured in EMEM (Sigma Aldrich, Munich, Germany) supplemented with 10% FCS (fetal bovine serum, PromoCell, Heidelberg, Germany), 1% penicillin-streptomycin (Pen/Strep, 10,000 IU/mL; PromoCell, Heidelberg, Germany), 1% nonessential amino acids and 1% glutamine (PromoCell, Heidelberg, Germany). SKBR-3 human breast cancer cell line was cultured in McCoy’s 5a Medium Modified (Sigma Aldrich, Munich, Germany) supplemented with 10% FCS (fetal bovine serum, PromoCell, Heidelberg, Germany), 1% penicillin-streptomycin (Pen/Strep, 10,000 IU/mL; PromoCell, Heidelberg, Germany). A375 human melanoma cell line was cultured in DMEM containing 15% FCS (fetal bovine serum, PromoCell, Heidelberg, Germany) and 1% penicillin-streptomycin (Pen/Strep, 10,000 IU/mL; PromoCell, Heidelberg, Germany). Cells were maintained at an atmosphere of 5% CO2 at 37 °C. NCI-H1573 lung adenocarcinoma cell line was cultured in RPMI-1640 Medium (ATCC, Rockville, MD, USA) supplemented with 10% FCS (fetal bovine serum, PromoCell, Heidelberg, Germany), 1% penicillin-streptomycin (Pen/Strep, 10,000 IU/mL; PromoCell, Heidelberg, Germany).
(§5) All tested cell lines were seeded onto a 96-well microplate ([…]) and left overnight to attach to the bottom of the well. After 24 h, the amount of 150 μL of the tested substances dissolved into the culture medium was added and cells were incubated for 48 h. After the incubation period, a volume of 15 μL of the Alamar blue (BioSource, Camarillo, CA, USA) solution was added. After another 10 h of incubation at 37 °C, the samples were spectrophotometrically analyzed using a microplate reader. The wave lengths used were 570 nm and 600 nm, respectively. Wells with untreated cells were used as controls. The highest concentration of DMSO and pyridine (0.1%) used to prepare stock solutions was also tested, in order to identify the solvent activity. All measurements were performed in triplicate and data were presented as mean ± standard deviation.
For orientation: Alamar Blue is a resazurin reagent that responds to reducing activity.

Data set [5] concerns A375 human melanoma cell line. Nature of the data set: Alamar blue cell viability assay. The format is cell-based. As to conditions: 48 h treatment, 10 µM, relative to untreated control. The procedure: as §3, §4, §5
The subject of data set [6] is SKBR-3 human breast cancer cell line. In words: Alamar blue cell viability assay. The settings on record: 48 h treatment, 10 µM, relative to untreated control. In kind it is cell-based. The procedure:
as §3, §4, §5

The subject of data set [7] is MCF-7 human breast cancer cell line. In words: Alamar blue cell viability assay. The settings on record: 48 h treatment, 10 µM, relative to untreated control. The format is cell-based. The method, then:
as §3, §4, §5

Data set [8] is described as follows: Qualitative solubility in organic solvents. In kind it is physicochemical.
Data set [9] can be described thus: Solubility in compendial aqueous media. As to conditions: 37 °C, 30 min, mean ± standard deviation, n = 3. The format is physicochemical. The procedure:
Solubility assessment was conducted in compendial aqueous solutions prepared according to United States Pharmacopoeia USP39/NF34): hydrochloric acid 0.1 N pH 1.2, acetate buffer pH 4.5 and phosphate buffer 6.8. These buffer systems are routinely used for screening of drug dissolution testing and they simulate the pH values of proximal gastrointestinal regions. The standard samples were prepared by diluting the stock solution of 80 µg/mL in dimethyl sulfoxide (with 0.2% pyridine, v/v) with corresponding media. The reagents were of analytical grade and used as received.
The assay was performed using a SpectraMax Plus 84 Plate reader reader (Sunnyvale, CA, USA), Molecular Devices LLC (US), equiped with SoftMax software version 6.4.2 (Sunnyvale, CA, USA). Separate plates were loaded with standard solutions in nine concentrations (0.2 to 80 µg/mL). For evaluation of the aqueous solubility, the samples were prepared in triplicate by adding 10 µL of the stock solution to the wells loaded with 190 µL of each buffer, using MultiScreen HTS plates (PCF, code MSSLBPC, Merck Millipore, Darmstadt, Germany). After 30 minutes of incubation at 37 ± 0.5 °C under agitation (250 rpm, IKA KS 4000 ic control, IKA, Staufen, Germany), the plates were filtrated under vacuum using a Vac-Man 96 Vacuum manifold (Promega Corporation, Madison, WI, USA). The solutions were collected in V-bottom polypropylene 96-well microplates (Greiner Bio-One, Kremsmünster, Austria). Volumes of 100 µL were transferred to UV-Star 96-well microplate with flat bottom (Chimney well, Grained Bio-One) and diluted by addition of 100 µL of the corresponding medium. The absorbance corresponding to each well was determined at fixed wavelengths: 280, 300, 320, 340, 360 and 800 nm. The reduced value of absorbance, calculated by the sum of the values recorded at the six wavelengths, were used for the calibration curve and subsequent determination of concentration in each solubility sample.

Another data set relates to Candida albicans. Nature of the data set: Antifungal (antimycotic) activity, liquid Sabouraud medium (MIC/MBC). In kind it is cell-based. The settings on record: C. albicans.
From the text: as §1
Antimycotic properties of the complexes were investigated in vitro on laboratory stem Candida albicans. The activity has been determined in a liquid Sabouraud nutritive environment (pH 6.8). The inoculates were prepared from fungi stems which were harvested over 3–7 days. Their concentration in suspension is (2–4) × 10^6 colonies form unities in milliliter. Sowings for levures and micelles were incubated at 37 °C during 7 and 14 days, respectively.

[10] abbreviates: Hydrochloric Acid 0.1 N (pH = 1.2).

Turning to `CC(=O)[O-].COc1cccc(C=NNC(=O)c2ccncc2)c1[O-].[Cu+2]` [complex 2, [Cu(L)(CH3COO)]], the MBC in data set [1] came out at 500 mg/L; in data set [2], 0.015 mg/L; in data set [3], 500 mg/L; in the data set on Candida albicans, 250 mg/L. For the same compound, the MIC (usually the least concentration at which growth counts as inhibited) in data set [1] turned out to be 500 mg/L; in data set [2], 0.015 mg/L; in data set [3] it was 500 mg/L; against Candida albicans, 125 mg/L. The Viability % was determined as 7.22% in [4], 0.73% in data set [5], 6.88% in data set [6] and 2.10% in data set [7]. Besides, the 50% lethal concentration (LC50) – broadly, the concentration that kills 50% of the test population – in the data set with Daphnia magna (incubation period 24 h) came out at 69.6 µM; in the data set on Daphnia magna (incubation period 48 h), 13.1 µM. Also, in [8], the “solubility in organic solvents (qualitative)” value (shortened to “solubility in organic solvents”) was “soluble in pyridine and is partially soluble in ethanol, methanol, acetonitrile, acetone, DMF and DMSO”. Further, the figures for the “solubility in compendial media” value in [9] (Acetate Buffer (pH = 4.5)), in data set [9] (setting [10]) and in data set [9] (Phosphate Buffer (pH = 6.8)) were 1.27 ± 0.06 µg/mL, 1.75 ± 0.54 µg/mL and under 0.2 µg/mL, respectively.
In the case of `COc1cccc(C=NNC(=O)c2ccncc2)c1[O-].O.O=[N+]([O-])[O-].[Cu+2]` [complex 3, [Cu(L)(NO3)]·H2O], the MBC is 500 mg/L in data set [1], 0.15 mg/L in [2], 500 mg/L in [3] and 3 mg/L against Candida albicans. The MIC in data set [1] is 500 mg/L; in [2] it was 0.07 mg/L; in data set [3] it was 500 mg/L; against Candida albicans it was 1.5 mg/L. Also, the Viability % in [4] is listed as 12.14%; in data set [5], 1.59%; in data set [6], 62.65%; in data set [7], 2.44%. The LC50 turned out to be 317 µM with Daphnia magna (incubation period 24 h) and 5.61 µM with Daphnia magna (incubation period 48 h). Besides, the “solubility in organic solvents” value in [8] was “soluble in pyridine and is partially soluble in ethanol, methanol, acetonitrile, acetone, DMF and DMSO”. Besides, the entries for the “solubility in compendial media” value in [9] (Acetate Buffer (pH = 4.5)), in data set [9] (setting [10]) and in data set [9] (Phosphate Buffer (pH = 6.8)) were 1.69 ± 0.18 µg/mL, 0.92 ± 0.11 µg/mL and under 0.2 µg/mL, respectively.
For the compound `COc1cccc(C=NNC(=O)c2ccncc2)c1[O-].O.[Cu+2].[O-][Cl+3]([O-])([O-])[O-]` [complex 4, [Cu(L)(ClO4)]·H2O], the MBC in data set [1] was 500 mg/L; in [2], 0.7 mg/L; in data set [3], 500 mg/L; with Candida albicans, 0.7 mg/L. Besides, the MIC stood at 250 mg/L in data set [1], 0.7 mg/L in data set [2], 250 mg/L in data set [3] and 0.7 mg/L with Candida albicans. Moreover, the Viability % is 10.05% in data set [4], 0.70% in data set [5], 48.72% in data set [6] and 3.43% in [7]. The “solubility in organic solvents” value in [8] is “soluble in pyridine and is partially soluble in ethanol, methanol, acetonitrile, acetone, DMF and DMSO”. Moreover, the “solubility in compendial media” value is reported as 1.67 ± 0.28 µg/mL in data set [9] (Acetate Buffer (pH = 4.5)), 0.82 ± 0.6 µg/mL in data set [9] (setting [10]) and under 0.2 µg/mL in data set [9] (Phosphate Buffer (pH = 6.8)).
For the compound `COc1cccc(C=NNC(=O)c2ccncc2)c1[O-].COc1cccc(C=NNC(=O)c2ccncc2)c1[O-].[Co+2]` [complex 5, [Co(L)2]], the MBC in data set [1] came out at 500 mg/L; in [2], 0.7 mg/L; in data set [3], 500 mg/L; against Candida albicans it was 250 mg/L. Besides, the MIC amounted to 250 mg/L in [1], 0.7 mg/L in [2], 500 mg/L in [3] and 125 mg/L against Candida albicans. Moreover, the Viability % was 89.79% in data set [4], 88.96% in data set [5], 76.68% in data set [6] and 55.61% in data set [7]. The LC50 came to 278 µM in the data set on Daphnia magna (incubation period 24 h) and 2.38 µM with Daphnia magna (incubation period 48 h). Besides, the “solubility in organic solvents” value in data set [8] was “soluble in pyridine, DMF and DMSO, and is partially soluble in ethanol, methanol, acetonitrile, acetone”. In addition, the “solubility in compendial media” value is reported as 1.62 ± 0.72 µg/mL in [9] (Acetate Buffer (pH = 4.5)), under 0.2 µg/mL in [9] (setting [10]) and under 0.2 µg/mL in data set [9] (Phosphate Buffer (pH = 6.8)).
Take `COc1cccc(C=NNC(=O)c2ccncc2)c1[O-].COc1cccc(C=NNC(=O)c2ccncc2)c1[O-].[Zn+2]` [complex 6, [Zn(L)2]]: the MBC amounted to 250 mg/L in data set [1], 125 mg/L in data set [2], 250 mg/L in data set [3] and 125 mg/L against Candida albicans. The MIC in data set [1] is 125 mg/L; in [2], 63 mg/L; in data set [3], 250 mg/L; against Candida albicans, 125 mg/L. The Viability % in [4] amounted to 33.77%; in [5] it was 71.66%; in [6], 61.43%; in [7], 17.72%. Besides, in data set [8], the “solubility in organic solvents” value was “soluble in pyridine, DMF and DMSO, and is partially soluble in ethanol, methanol, acetonitrile, acetone”. Also, the “solubility in compendial media” value in data set [9] (Acetate Buffer (pH = 4.5)) is 1.56 ± 0.82 µg/mL; in data set [9] (setting [10]), 1.65 ± 0.06 µg/mL; in data set [9] (Phosphate Buffer (pH = 6.8)), under 0.2 µg/mL.
